From patent US20230264009A1, “DISINFECTING CAP KIT FOR LUER ACCESS DEVICES” (SterileCare Inc., priority 2022, published 2023)

What was measured:
[1] = tested on: S. epidermidis SK9; assay: MIC, micro broth dilution; format: cell-based, Staphylococcus epidermidis; conditions: alone, 24 h
Protocol: (§1) An assay was made using a minimum inhibitory concentration (MIC) and minimum bactericidal concentration (MBC) and minimum fungicidal concentration (MFC) determination. The MIC was determined by the micro broth dilution method in 96-well plates. Serial two-fold dilutions of tetrasodium EDTA (from 2% to 0.015%), ethanol (from 50% to 0.1%) and chlorhexidine HCl (from 100 µg/mL to 0.025 µg/mL) were prepared in MH broth with a final volume of 90 µL per well. A 10 µL containing 1 × 10^5 bacterial cells or 2 × 10^3 fungal cells were added to each well. The inoculated plates were covered with a lid, sealed with Parafilm, and incubated for 24 h at 37° C. with slight rocking on a tilting platform shaker. After incubation, the optical density at 600 nm (OD 600 ) of the cultures in each well was measured using an xMark™ Microplate Absorbance Spectrophotometer (Bio-Rad). […] MBCs and MFCs were determined by transferring 100 µL from each well with no apparent growth onto appropriate agar plates, followed by incubation for 24 h at 37° C.

[2] = tested on: MRSA ON184; assay: MIC, micro broth dilution; format: cell-based, Staphylococcus aureus; conditions: alone, 24 h
Protocol: as §1

[3] = tested on: C. albicans ON47; assay: MBC/MFC determination; format: cell-based, Candida albicans; conditions: alone
Protocol: as §1

[4] = tested on: S. epidermidis SK9; assay: Checkerboard titration, FICI; format: cell-based, Staphylococcus epidermidis
Protocol: (§2) A fourth composition and solution included tetrasodium EDTA with ethanol or chlorhexidine HCl. This fourth composition and solution were created using checkerboard titration methods using micro broth dilution in 96-well microtiter plates. The concentrations of antimicrobials used were based on previously determined MIC values. Briefly, 200 µL of two-fold dilutions of tetrasodium EDTA and ethanol or chlorhexidine HCl were prepared in MH or MH II broth with standardized cell suspension. […] Microtiter plates were incubated at 37° C. for 24 h, and the results were analyzed. Each test was performed in duplicate and included a growth control without adding any antimicrobials.

[5] = tested on: MRSA ON184; assay: Checkerboard titration, FICI; format: cell-based, Staphylococcus aureus
Protocol: as §2

[6] = tested on: C. albicans ON47; assay: Checkerboard titration, FICI; format: cell-based, Candida albicans
Protocol: as §2

[7] = tested on: MRSA ON184; assay: Checkerboard titration, FMCI; format: cell-based, Staphylococcus aureus
Protocol: as §1, §2

[8] = tested on: E. coli SK2; assay: Checkerboard titration, FMCI; format: cell-based, Escherichia coli
Protocol: as §1, §2

[9] = tested on: C. albicans ON47; assay: Checkerboard titration, FMCI; format: cell-based, Candida albicans
Protocol: as §1, §2

[10] = tested on: C. albicans ON47 biofilm; assay: MBEC Assay, 48-h biofilm, 24 h exposure; format: cell-based, Candida albicans
Protocol: A biofilm cultivation cell composition was provided. This fifth composition was created using an MBEC Assay® biofilm inoculator, consisting of a polystyrene lid with 96 downward-protruding pegs and a corresponding base used to grow biofilms. A standardized inoculum was diluted in an appropriate biofilm growth medium to achieve a viable cell count of 1.5 × 10^6 CFU/mL of bacterial cells or […] CFU/mL of fungal cells. Then, 150 µL of this inoculum was transferred into each appropriate well, and the peg lids were inserted into the microtiter plates. The plates were sealed with Parafilm and were incubated at optimum temperature for 48 h with slight rocking for bacteria and shaking at 200 rpm for fungal strains. After incubation, the peg lid was removed from the base and rinsed twice with sterile phosphate-buffered saline (PBS) for 2 min to remove loosely attached non-sessile cells. Before the antimicrobial challenge, the pegs in column 1 (n = 8) were considered the biofilm growth control; these pegs were removed from the lids, placed into 200 µL of recovery medium, and analyzed for starting biofilm cell numbers as described below. […] MBEC values were determined as the minimum concentration of antimicrobials that yielded a viable cell count at or lower than the 125 CFU/mL detection limit.

[11] = tested on: Staphylococcus aureus ON89 biofilm; assay: FBEC index, checkerboard dilution on biofilms; format: cell-based; conditions: S. aureus ON89 biofilm
Protocol: (§3) In step (4), microtiter plates are incubated at 37° C. for 24 h. then (6), after incubation, the bacterial and fungal cells were dislodged from the pegs into the recovery medium described above.
(§4) Three 10-µL aliquots, for a total of 30 µL from each well of recovery medium, were spotted on MH agar plates and incubated for 24 h at 37° C. […] The FBEC determination is a modification of the FICI.

[12] = tested on: MRSA ON184 biofilm; assay: FBEC index, checkerboard dilution on biofilms; format: cell-based, Staphylococcus aureus
Protocol: as §3, §4

[13] = tested on: Proteus mirabilis ON153 biofilm; assay: FBEC index, checkerboard dilution on biofilms; format: cell-based; conditions: P. mirabilis ON153 biofilm
Protocol: as §3, §4

[14] = tetrasodium EDTA + chlorhexidine HCl

In the case of O=C([O-])CN(CCN(CC(=O)[O-])CC(=O)[O-])CC(=O)[O-].[Na+].[Na+].[Na+].[Na+] [EDTA, tetrasodium EDTA], the MIC [1] is reported as 0.063 % w/v, the MIC [2] is reported as 0.063 % w/v and the MBC/MFC [3] is reported as 1 % w/v. For the same compound, the “Concentration in combination giving FICI” value [4, 14] was 0.015 % w/v, the “Concentration in combination giving FICI” value ([4]; tetrasodium EDTA + ethanol) was 0.015 % w/v and the “Concentration in combination giving FICI” value [5, 14] was 0.008 % w/v. For the same compound, the “Concentration in combination giving FICI” value ([5]; tetrasodium EDTA + ethanol) was 0.015 % w/v, the “Concentration in combination giving FICI” value [6, 14] was 0.125 % w/v and the “Concentration in combination giving FICI” value ([6]; tetrasodium EDTA + ethanol) was 0.25 % w/v. The “Concentration in combination giving FMCI” value [7, 14] was 0.125 % w/v, the “Concentration in combination giving FMCI” value ([7]; tetrasodium EDTA + ethanol) was 0.031 % w/v and the “Concentration in combination giving FMCI” value [8, 14] was 0.015 % w/v. The “Concentration in combination giving FMCI” value ([8]; tetrasodium EDTA + ethanol) was 0.25 % w/v, the “Concentration in combination giving FMCI” value [9, 14] was 0.031 % w/v and the “Concentration in combination giving FMCI” value ([9]; tetrasodium EDTA + ethanol) was 0.25 % w/v. The MBEC [10] was 1 % w/v, the “FBEC (concentration in combination)” value [11, 14] was 0.125 % w/v and the “FBEC (concentration in combination)” value ([11]; tetrasodium EDTA + ethanol) was 0.063 % w/v. For the same compound, the “FBEC (concentration in combination)” value [12, 14] was 0.031 % w/v, the “FBEC (concentration in combination)” value ([12]; tetrasodium EDTA + ethanol) was 0.063 % w/v and the “FBEC (concentration in combination)” value [13, 14] was 0.125 % w/v. The “FBEC (concentration in combination)” value ([13]; tetrasodium EDTA + ethanol) was 0.125 % w/v.
